This passage reports EC50, inhibition and Dead mice/test mice results from patent publication US7833991B2, “Amine compound and use thereof” (Kureha Corporation, priority 2002, dated 2010).

Read-outs that look alike come from different tables or passages of the source.

Series [1] deals with HIV-1IIIB infected MT-4 cells. Briefly: Antiviral activity in HIV-1IIIB infected MT-4 cells, MTT method (Test Examples 1 and 5). It is filed as cell-based. Here is the method: Immediately after infection, HIV-1IIIB infected MT-4 cells (3.0×10^4/well, MOI (Multiplicity of infection): 0.01) were added to a 96-well microtiter plate together with the test compounds having different concentrations. The cells were cultured in a carbon dioxide incubator at 37° C. for 5 days, and the number of living cells was measured in accordance with the MTT (tetrazolium) method (Pawels, et al., Journal of Virology Method, 20, 309-321 ([…])). The antiviral activity is represented by the concentration required for inhibition of cell disorder due to HIV by 50% (EC50: 50% Effective Concentration) (μM), and the results are shown in Table 2.
(§1) Compounds of the present invention having various substituted and unsubstituted heterocyclic rings for the substituent A2 of formula (1) were tested for antiviral (anti-HIV) activity as in Test Example 1 and for CXCR4 activity as in Test Example 2. The compounds, various substituents of the compounds, antiviral activity represented by the concentration required for inhibition of all disorder due to HIV injection by 50% (EC50: 50% Effective Concentration, μM), and CXCR4 activity calculated as a rate of inhibition of the binding between radioactive ligands and CXCR4 receptors by a test material (a binding-inhibition % at 0.1 μM) are shown in Table 5: […]
On the technique in general: Tetrazolium assays rely on reduction of a dye to a coloured formazan, in cell work by metabolically active cells.

In a further series the target is T1, CXCR4 (Homo sapiens, UniProt P61073).
T1 construct: endogenous in cells; host or cells: MT-4 cells
The series can be described thus: Inhibition of 125I-SDF-1α binding to receptors CXCR4 on MT-4 cells (Test Examples 2 and 5). The settings on record: binding-inhibition % at 0.1 μM. Here is the method:
MT-4 cells (5×10^6/0.2 ml/well) were cultured on a 24-well microtiter plate. After the cells were incubated for 24 hours at 37° C. in a carbon dioxide gas incubator, a culture medium was replaced with a buffer solution (0.1% BSA-containing RPMI-1640). Together with a ligand ^125I-SDF-1α, (specific activity: 2,200 Ci/mmol; available from Daiichi Pure Chemicals Co., Ltd. (Tokyo)), test materials with various concentrations were subjected to a binding reaction for 2 hours under ice-cooling. […] Then, a rate of inhibition of the binding between radio-active ligands and receptors CXCR4 by a test material was calculated (a binding-inhibition % at 0.1 μM).
as §1

For a further series, the system named is ICR mice. Briefly: Acute toxicity in mice, single administration via tail vein (Test Example 3). The format is in vivo. The settings on record: ICR mice (male), 2.5 mg/kg once. As for the experimental part:
The aforementioned compound was examined for acute toxicity. Specifically, 7-week-old ICR mice (male) were divided into several groups (4 or 5 mice in each group), and the mice were bred for 1 week for habituation. Subsequently, each of the compounds of Examples was dissolved in distilled water or physiological saline, and the solution was administered to the mice via tail vein (dose: 2.5 mg/kg) once. Then, dead mice were counted.

The mark [2] stands for this setting: Human immunodeficiency virus 1, MT4, 120 h, concentration required for inhibition of cell disorder due to HIV by 50%, MT-4 cells, MOI 0.01, 5 days, MTT method, read-out: EC50.
The mark [3] stands for this setting: 125I-SDF-1α, MT-4 cells, 2 hours under ice-cooling, read-out: Inhibition rate (%).
The mark [4] stands for this setting: Human immunodeficiency virus 1, MT4, as in Test Example 1, Table 5, read-out: HIV Activity EC50.
Setting [5] is: as in Test Example 2, Table 5, read-out: CXCR4 Activity % at 0.1 μM.

T1 sequence (P61073 whole entry): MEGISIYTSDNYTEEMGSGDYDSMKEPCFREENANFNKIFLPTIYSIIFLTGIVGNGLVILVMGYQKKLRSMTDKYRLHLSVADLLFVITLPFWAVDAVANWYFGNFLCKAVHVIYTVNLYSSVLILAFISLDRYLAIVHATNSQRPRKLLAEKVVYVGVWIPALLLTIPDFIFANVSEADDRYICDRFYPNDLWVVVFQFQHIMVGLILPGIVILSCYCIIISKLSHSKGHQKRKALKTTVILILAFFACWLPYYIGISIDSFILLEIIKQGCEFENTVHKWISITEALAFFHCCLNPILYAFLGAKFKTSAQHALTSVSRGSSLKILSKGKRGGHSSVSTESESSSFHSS

Regarding `O=C(NCCCCNCc1ccccc1C(F)(F)F)c1ccc(CN(Cc2ncc[nH]2)Cc2ncc[nH]2)cc1` [Compound No. 11, 4-{[bis(1H-imidazol-2-ylmethyl)-amino]-methyl}-N-[4-(2-trifluoromethyl)-benzylamino-butyl]-benzamide], in series [1] (setting [2]), the EC50 (usually the concentration that produces a half-maximal response) is 23 nM. In addition, the inhibition at 0.1 µM on CXCR4 (setting [3]) was 95%. Moreover, in the series with ICR mice, the Dead mice/test mice is on record as 0/5.

As to `CCCN(CCC)CCCCN(C)Cc1ccc(CN(Cc2ncc[nH]2)Cc2nccn2C)cc1` [Compound No. 98, N-(4-{[(1H-imidazol-2-ylmethyl)-(1-methyl-1H-imidazol-2-ylmethyl)-amino]-methyl}-benzyl)-N-methyl-N′,N′-dipropylbutane-1,4-diamine], the EC50 in series [1] (setting [2]) turned out to be 3 nM. Moreover, on CXCR4 (setting [3]), the inhibition at 0.1 µM came out at 100%. For the same compound, in the series with ICR mice, the Dead mice/test mice is 0/5.

In the case of `CC(C)CN(CCCCNC(=O)c1ccc(CN(Cc2ncc[nH]2)Cc2ncc[nH]2)cc1)CC(C)C` [Compound No. 2, 4-{[bis(1H-imidazol-2-ylmethyl)-amino]-methyl}-N-(4-diisobutylamino-butyl)-benzamide], the EC50 in series [1] (setting [2]) turned out to be 3 nM. Besides, on CXCR4 (setting [3]), the inhibition at 0.1 µM came to 100%. In addition, the Dead mice/test mice with ICR mice is recorded as 0/5.

In the case of `CCCN(CCC)CCCCNCc1ccc(CN(Cc2ccc(C)cn2)Cc2ncc[nH]2)cc1` [Compound No. 75, N-(4-{[(1H-imidazol-2-ylmethyl)-(5-methylpyridine-2-ylmethyl)-amino]-methyl}-benzyl)-N′,N′-dipropylbutane-1,4-diamine], the concentration for a half-maximal effect (EC50) in series [1] (setting [2]) amounted to 2 nM. Moreover, the inhibition at 0.1 µM at CXCR4 (setting [3]) was 100%. The Dead mice/test mice in the series on ICR mice was 0/5.

`CCCN(CCC)CCCCN(C)Cc1ccc(CN(Cc2ncc[nH]2)Cc2nnc[nH]2)cc1` [Compound No. 116, N-(4-{[(imidazol-2-ylmethyl)-([1,2,4]-triazol-3-ylmethyl)-amino]-methyl}-benzyl)-N-methyl-N′,N′-dipropylbutane-1,4-diamine]: the half-maximal effective concentration (EC50) in series [1] (setting [2]) is 2 nM. Further, the inhibition at 0.1 µM on CXCR4 (setting [3]) was determined as 100%. Further, in the series with ICR mice, the Dead mice/test mice was 0/5.

With `CCCN(CCC)Cc1ccc(NC(=O)c2ccc(CN(Cc3ncc[nH]3)Cc3nc4ccccc4[nH]3)cc2)cc1` [Compound No. 61, N-(4-dipropylaminomethylphenyl)-4-{[(1H-imidazol-2-ylmethyl)-(1H-benzimidazol-2-ylmethyl)-amino]-methyl}-benzamide], the EC50 in series [1] (setting [2]) and in series [1] (setting [4]) was 2 nM each time. Further, the inhibition at 0.1 µM at CXCR4 (setting [5]) and on CXCR4 (setting [3]) was 100% each time. Further, the Dead mice/test mice in the series with ICR mice is listed as 0/5.

Regarding `NCCCCNC(=O)c1ccc(CN(Cc2ncc[nH]2)Cc2ncc[nH]2)cc1` [Compound No. 3, 4-{[bis(1H-imidazol-2-ylmethyl)-amino]-methyl}-N-(4-aminobutyl)-benzamide], the EC50 in series [1] (setting [2]) is 3 nM. Further, the inhibition at 0.1 µM on CXCR4 (setting [3]) came to 100%. In the series with ICR mice, the Dead mice/test mice is 0/5.

On to `CCCN(CCC)CCCCNCc1ccc(CN(Cc2ncc[nH]2)Cc2ncc[nH]2)cc1` [Compound No. 25, N-(4-{[bis(1H-imidazol-2-ylmethyl)-amino]-methyl}-benzyl)-N′,N′-dipropylbutane-1,4-diamine], for which the EC50 in series [1] (setting [2]) is 2 nM. The inhibition at 0.1 µM at CXCR4 (setting [3]) turned out to be 100%. In addition, the Dead mice/test mice with ICR mice is 0/5.

Regarding `CCCN(CCC)CCCCNC(=O)c1ccc(CN(Cc2ncc[nH]2)Cc2ncc[nH]2)cc1` [Compound No. 1, 4-{[bis(1H-imidazol-2-ylmethyl)-amino]-methyl}-N-(4-dipropylamino-butyl)-benzamide], in series [1] (setting [2]), the EC50 came to 4 nM. Moreover, at CXCR4 (setting [3]), the inhibition at 0.1 µM amounted to 100%. Further, the Dead mice/test mice in the series on ICR mice is 0/5.

With `CN(CCCCNS(=O)(=O)c1ccc(CN(Cc2ncc[nH]2)Cc2nccn2C)cc1)C1CCCCC1` [Compound No. 109, N-[4-(cyclohexyl-methyl-amino)-butyl]-4-{[(1H-imidazol-2-ylmethyl)-(1-methyl-1H-imidazol-2-ylmethyl)-amino]-methyl}-benzenesulfonamide], the EC50 in series [1] (setting [2]) worked out at 2 nM. The inhibition at 0.1 µM at CXCR4 (setting [3]) stood at 100%. Also, in the series on ICR mice, the Dead mice/test mice is given as 0/5.

Consider `O=C(NCCCCNCc1ccccc1OC(F)(F)F)c1ccc(CN(Cc2ncc[nH]2)Cc2ncc[nH]2)cc1` [Compound No. 12, 4-{[bis(1H-imidazol-2-ylmethyl)-amino]-methyl}-N-[4-(2-trifluoromethoxy)-benzylamino-butyl]-benzamide], for which the EC50 in series [1] (setting [2]) came to 49 nM. The inhibition at 0.1 µM on CXCR4 (setting [3]) came out at 95%. Further, the Dead mice/test mice in the series on ICR mice was 0/5.

In the case of `CCCN(CCC)Cc1ccc(NC(=O)c2ccc(CN(Cc3ncc[nH]3)Cc3ncc[nH]3)cc2)cc1` [Compound No. 19, 4-{[bis(1H-imidazol-2-ylmethyl)-amino]-methyl}-N-(4-dipropylaminomethylphenyl)-benzamide], the EC50 in series [1] (setting [2]) was 2 nM. For the same compound, the inhibition at 0.1 µM at CXCR4 (setting [3]) came to 100%. Further, in the series with ICR mice, the Dead mice/test mice is given as 0/5.

For the compound `CCCN(CCC)Cc1ccc(NC(=O)c2ccc(CN(Cc3ncc[nH]3)Cc3nccn3C)cc2)cc1` [Compound No. 49, N-(4-dipropylaminomethylphenyl)-4-{[(1H-imidazol-2-ylmethyl)-(1-methyl-1H-imidazol-2-ylmethyl)-amino]-methyl}-benzamide], the EC50 in series [1] (setting [2]) and in series [1] (setting [4]) was 2 nM in each case. For the same compound, the inhibition at 0.1 µM at CXCR4 (setting [5]) and on CXCR4 (setting [3]) was 100% throughout. Besides, the Dead mice/test mice with ICR mice was 0/5.

Regarding `CCCN(CCC)Cc1ccc(NC(=O)c2ccc(CN(Cc3ncc[nH]3)Cc3nccc4ccccc34)cc2)cc1` [Compound No. 63, N-(4-dipropylaminomethylphenyl)-4-{[(1H-imidazol-2-ylmethyl)-(isoquinolin-1-ylmethyl)-amino]-methyl}-benzamide], the EC50 in series [1] (setting [4]) turned out to be 81 nM. Also, the inhibition at 0.1 µM on CXCR4 (setting [5]) was 14.7%.
